What was measured:
Format in all cases: biochemical
[1] = target: CDK9/CycT (Homo sapiens (Human), UniProt P50750); experiment: LANCE Ultra kinase activity inhibition assay, CDK9/CycT; conditions: ATP 10 μM, highest compound concentration 1 μM
Method: (§1) In the following LANCE Ultra test methods, kinase reagents were purchased from Carna Bioscience, reaction substrates and detection reagents were purchased from PerkinElmer, and the remaining reagents were purchased from Thermo scientific.
The inhibiting effects on the kinase activity of CDK1/CycB (Carna bioscience, #04-102), CDK2/CycA (Carna bioscience, #04-103) and CDK9/CycT (Carna bioscience, #04-110) were determined by using LANCE Ultra method.
The kinase activity test was performed using a system (10 μL) containing the following components: substrate diluent prepared by mixing CDK kinase diluent, Ulight-Myelic basic protein (Perkin Elmer, #TRF-0109, hereinafter referred to as U-MBP) and ATP (Thermo scientific, #PV3227); and the compounds (i.e., analyte) prepared in the examples of the present disclosure. The assay for each kinase includes three test groups, i.e., a background group (Blank), a non-inhibition group (PC), and compound testing group (Test). The components included in each test group were as follows:
(§2) Working concentrations of the respective components of the Test groups in different kinase reactions were as follows.
(§3) Compounds: 10 mM of the compound to be tested was dissolved at room temperature and diluted with DMSO to gradient concentrations, followed by diluting with deionized water to prepare a 4× working solution of the compound, and the content of DMSO was 2%. The highest concentration of compound used in the CDK1 and CDK2 assays was 10 μM, and that in CDK9 assay was 1 μM.
1.33×reaction buffer: the components include 26.7 mM of MOPS, 6.67 mM of MgCl2, and 0.0133% Tween-20, which were stored in a 4° C. refrigerator and protected from light after preparation. Freshly prepared DTT was added to a final concentration of 5.33 mM before use.
(§4) The working concentration of DMSO in the reaction was 0.5%.
(§5) The above-mentioned components, after being mixed, were placed on a shaker and incubated at room temperature in the dark for 1 h. 10 μL of test solution was then added to all test groups (including Blank, PC and Test groups).
10 μL of test solution contains the following components: 16 mM of EDTA (Thermo scientific, #15575), 1 nM of phosphorylated U-MBP protein antibody (Perkin Elmer, #TRF-0201), and 1× detection damping fluid (Perkin Elmer, #CR97-100).
After the test solution was added, the solution was placed on a shaker and continually incubated at room temperature for 1 h in the dark. At the end of incubation, Victor X5 fluorescence microplate reader of Perkin Elmer was used to read the signal; the wavelength of excitation light was 320 nm, and the wavelengths of emission light were 615 nm and 665 nm. The inhibition rate was calculated as below.
1. For all groups, a value of 665 nm/615 nm (hereinafter referred to as Ratio) was calculated, and an inhibition rate was calculated based on the Ratio of each group;
(§6) 2. Inhibition rate=(PCRatio-TestRatio)/(PCRatio-BlankRatio)*100%; and
(§7) 3. XLFIT 5.0 software (IDBS, UK) was used to fit a graph by using the logarithmic value of the compound concentration as the X-axis and the inhibition rater as the Y-axis, and a four-parameter model was used to calculate the half inhibitory concentration IC50 of the compound.

[2] = target: CDK1/CycB (Homo sapiens (Human), UniProt P06493); experiment: LANCE Ultra kinase activity inhibition assay, CDK1/CycB; conditions: ATP 4 μM, highest compound concentration 10 μM
Chain of CDK1/CycB (P06493 whole entry): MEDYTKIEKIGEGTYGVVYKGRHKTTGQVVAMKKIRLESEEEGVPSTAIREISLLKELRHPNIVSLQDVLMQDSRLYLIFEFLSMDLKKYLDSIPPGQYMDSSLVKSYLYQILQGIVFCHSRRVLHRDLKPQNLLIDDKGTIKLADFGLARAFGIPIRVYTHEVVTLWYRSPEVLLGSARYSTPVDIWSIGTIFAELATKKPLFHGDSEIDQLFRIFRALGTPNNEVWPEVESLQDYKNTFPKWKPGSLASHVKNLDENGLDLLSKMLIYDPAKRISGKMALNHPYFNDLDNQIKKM
Chain of CDK1/CycB (P14635 whole entry partner): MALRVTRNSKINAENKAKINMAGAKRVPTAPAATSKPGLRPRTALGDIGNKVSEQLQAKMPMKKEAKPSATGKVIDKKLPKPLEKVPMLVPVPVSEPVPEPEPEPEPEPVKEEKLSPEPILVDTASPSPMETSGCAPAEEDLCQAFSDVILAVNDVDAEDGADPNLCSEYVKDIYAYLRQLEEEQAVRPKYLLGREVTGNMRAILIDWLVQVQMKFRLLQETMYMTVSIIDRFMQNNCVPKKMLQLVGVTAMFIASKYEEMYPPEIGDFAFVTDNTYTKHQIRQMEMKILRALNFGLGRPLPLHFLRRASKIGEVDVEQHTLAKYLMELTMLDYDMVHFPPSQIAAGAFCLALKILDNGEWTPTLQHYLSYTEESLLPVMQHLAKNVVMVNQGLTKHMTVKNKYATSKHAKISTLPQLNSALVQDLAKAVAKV
From the text: as §1
(§8) The assay for each kinase includes three test groups, i.e., a background group (Blank), a non-inhibition group (PC), and compound testing group (Test). The components included in each test group were as follows:
as §2, §3, §4, §5
(§9) After the test solution was added, the solution was placed on a shaker and continually incubated at room temperature for 1 h in the dark. […] The inhibition rate was calculated as below.
as §6, §7

[3] = target: CDK2/CycA (Homo sapiens (Human), UniProt P24941); experiment: LANCE Ultra kinase activity inhibition assay, CDK2/CycA; conditions: ATP 10 μM, highest compound concentration 10 μM
From the text: as §1, §8, §2, §3, §4, §5, §9, §6, §7

Chain of CDK9/CycT (P50750 whole entry): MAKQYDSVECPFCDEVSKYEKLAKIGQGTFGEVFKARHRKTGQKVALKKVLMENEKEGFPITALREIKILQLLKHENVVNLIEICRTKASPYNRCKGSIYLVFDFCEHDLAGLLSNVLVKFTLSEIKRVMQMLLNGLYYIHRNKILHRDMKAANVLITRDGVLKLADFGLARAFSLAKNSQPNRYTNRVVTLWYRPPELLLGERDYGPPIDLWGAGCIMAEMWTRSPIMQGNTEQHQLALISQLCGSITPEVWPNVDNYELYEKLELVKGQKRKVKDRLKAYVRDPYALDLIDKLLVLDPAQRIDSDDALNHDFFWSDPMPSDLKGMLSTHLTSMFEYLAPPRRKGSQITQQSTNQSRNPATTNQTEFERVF
Chain of CDK9/CycT (O60563 whole entry partner): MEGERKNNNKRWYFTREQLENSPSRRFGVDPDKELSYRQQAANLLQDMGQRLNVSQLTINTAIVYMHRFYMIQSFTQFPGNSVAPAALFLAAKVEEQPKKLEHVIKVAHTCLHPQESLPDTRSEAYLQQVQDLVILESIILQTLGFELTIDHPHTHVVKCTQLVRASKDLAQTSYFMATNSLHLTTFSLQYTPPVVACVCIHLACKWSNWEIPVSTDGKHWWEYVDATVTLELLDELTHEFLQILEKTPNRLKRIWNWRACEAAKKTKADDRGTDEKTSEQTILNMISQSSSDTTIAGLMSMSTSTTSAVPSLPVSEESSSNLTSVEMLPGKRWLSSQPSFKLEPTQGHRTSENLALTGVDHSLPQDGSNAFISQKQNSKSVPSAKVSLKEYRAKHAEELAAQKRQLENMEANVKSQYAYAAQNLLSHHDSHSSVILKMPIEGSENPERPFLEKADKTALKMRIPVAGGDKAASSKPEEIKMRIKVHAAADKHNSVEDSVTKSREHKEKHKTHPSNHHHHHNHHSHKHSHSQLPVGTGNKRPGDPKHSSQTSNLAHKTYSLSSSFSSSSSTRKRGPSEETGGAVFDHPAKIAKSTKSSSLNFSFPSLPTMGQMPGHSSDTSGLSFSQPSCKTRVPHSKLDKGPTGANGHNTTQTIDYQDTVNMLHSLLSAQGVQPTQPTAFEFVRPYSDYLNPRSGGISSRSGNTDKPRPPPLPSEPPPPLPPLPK

Row | SMILES | IC50 [1] | IC50 [2] | IC50 [3]
1 | Cc1cnn2c(N[C@H]3CC[C@H](N)C3)cc(C(C)(C)C3CCC3)nc12 [Compound Z-40] | 0.048 µM | > 10 µM | > 10 µM
2 | N[C@H]1CC[C@H](Nc2cc(CC3CCC3)nc3ccnn23)C1 [Compound Z-50] | 0.064 µM | 6.57 µM | > 10 µM
3 | N[C@H]1CC[C@H](Nc2cc(C(C3CC3)C3CC3)nc3c(Cl)cnn23)C1 [Compound Z-2] | 0.006 µM | 0.161 µM | 0.191 µM
4 | CC1(Cc2cc(N[C@H]3CC[C@H](N)C3)n3nccc3n2)CC1 [Compound Z-17] | 0.06 µM | 8.45 µM | > 10 µM
5 | CC(=N)N[C@H]1CC[C@H](Nc2cc(C(C3CC3)C3CC3)nc3c(Cl)cnn23)C1 [Compound Z-66] | 0.018 µM | 0.995 µM | 0.332 µM
6 | CC(c1cc(N[C@H]2CC[C@H](N)CC2)n2nccc2n1)C1CC1 (stereo partly drawn) [Compound Z-21] | 0.029 µM | 4.37 µM | 3.29 µM
7 | CC(=N)N[C@H]1CC[C@H](Nc2cc(C(C)C3CC3)nc3c(F)cnn23)C1 (stereo partly drawn) [Compound Z-72] | 0.02 µM | 4.89 µM | 6.57 µM
8 | CC(c1cc(N[C@H]2CC[C@H](NC(=N)N)C2)n2ncc(Cl)c2n1)C1CC1 (stereo partly drawn) [Compound Z-65] | 0.019 µM | 1.24 µM | 2.3 µM
9 | CC(C)(c1cc(N[C@H]2CC[C@H](N)C2)n2ncc(Cl)c2n1)C1CCC1 [Compound Z-46] | 0.01 µM | 1.15 µM | 1.81 µM
10 | CC(c1cc(N[C@H]2C[C@@H](N)C2)n2nccc2n1)C1CC1 (stereo partly drawn) [Compound Z-74] | 0.417 µM | > 10 µM | > 10 µM
11 | N[C@H]1CC[C@H](Nc2cc(C(C3CC3)C3CC3)nc3ccnn23)C1 [Compound Z-1] | 0.018 µM | 1.96 µM | 5.65 µM
12 | Cc1cnn2c(N[C@H]3CC[C@H](N)C3)cc(C(C)(C)C3CC3)nc12 [Compound Z-34] | 0.036 µM | 8.09 µM | > 10 µM
13 | CC1(Cc2cc(N[C@H]3CC[C@H](N)C3)n3ncc(Cl)c3n2)CC1 [Compound Z-29] | 0.011 µM | 1.89 µM | 2.06 µM
14 | Cc1cnn2c(N[C@H]3CC[C@H](N)C3)cc([C@H](C)C3CC3)nc12 [Compound Z-32-P1] | 0.099 µM | > 10 µM | > 10 µM
15 | CC(c1cc(N[C@H]2CC[C@H](N)C2)n2nccc2n1)C1CCCC1 (stereo partly drawn) [Compound Z-13] | 0.018 µM | 1.34 µM | 7.62 µM
16 | CCC(c1cc(N[C@H]2CC[C@H](NC(=N)N)C2)n2nccc2n1)C1CC1 (stereo partly drawn) [Compound Z-67] | 0.044 µM | 4.59 µM | > 10 µM
17 | Cc1cnn2c(N[C@H]3CC[C@H](N)C3)cc(C(C)C3CC3)nc12 (stereo partly drawn) [Compound Z-32] | 0.009 µM | 0.996 µM | 0.967 µM
18 | CCC(c1cc(N[C@H]2CC[C@H](NC(C)=N)C2)n2nccc2n1)C1CC1 (stereo partly drawn) [Compound Z-69] | 0.058 µM | > 10 µM | > 10 µM

Row | SMILES | IC50 [1] | IC50 [2] | IC50 [3]
19 | C=CC(C)(C)c1cc(N[C@H]2CC[C@H](N)C2)n2nccc2n1 [Compound Z-18] | 0.033 µM | 4.2 µM | > 10 µM
20 | CCc1cnn2c(N[C@H]3CC[C@H](N)C3)cc(C(C)C3CC3)nc12 (stereo partly drawn) [Compound Z-20] | 0.034 µM | 2.42 µM | 4.39 µM
21 | CC(c1cc(N[C@H]2C[C@H](N)C2)n2nccc2n1)C1CC1 (stereo partly drawn) [Compound Z-62] | 0.017 µM | 1.54 µM | 4.72 µM
22 | C=CC(C)(C)c1cc(N[C@H]2CC[C@H](N)C2)n2ncc(F)c2n1 [Compound Z-58] | 0.02 µM | 5.31 µM | > 10 µM
23 | N[C@H]1CC[C@H](Nc2cc(C(C3CC3)C3CC3)nc3c(F)cnn23)C1 [Compound Z-15] | 0.005 µM | 0.293 µM | 0.367 µM
24 | CC(C)c1cnn2c(N[C@H]3CC[C@H](N)C3)cc(C(C3CC3)C3CC3)nc12 [Compound Z-24] | 0.084 µM | 2.53 µM | 2.92 µM
25 | CC(c1cc(NC2CCNC2)n2ncc(F)c2n1)C1CC1 (stereo not drawn) [Compound Z-31] | 0.104 µM | 3.21 µM | 6.39 µM
26 | CCC(c1cc(N[C@H]2CC[C@H](N)C2)n2nccc2n1)C1CC1 (stereo partly drawn) [Compound Z-28] | 0.011 µM | 1.86 µM | 3.07 µM
27 | N[C@H]1CC[C@H](Nc2cc(CC3CC3)nc3c(Cl)cnn23)C1 [Compound Z-55] | 0.015 µM | 1.94 µM | 1.91 µM
28 | CC(=N)N[C@H]1CC[C@H](Nc2cc(C(C)C3CC3)nc3c(Cl)cnn23)C1 (stereo partly drawn) [Compound Z-64] | 0.015 µM | 2.31 µM | 3.46 µM
29 | CC(C)(c1cc(N[C@H]2CC[C@H](N)C2)n2ncc(F)c2n1)C1CC1 [Compound Z-36] | 0.006 µM | 0.924 µM | 2.11 µM
30 | CCC(c1cc(N[C@H]2CC[C@H](N)C2)n2ncc(C)c2n1)C1CC1 (stereo partly drawn) [Compound Z-30] | 0.01 µM | 1.36 µM | 1.55 µM
31 | CC[C@H](c1cc(N[C@H]2CC[C@H](N)C2)n2ncc(C)c2n1)C1CC1 [Compound Z-30-P1] | 0.01 µM | 1.12 µM | 0.968 µM
32 | Cc1cnn2c(N[C@H]3CC[C@H](N)C3)cc([C@H](C)C3(C)CC3)nc12 [Compound Z-26-P1] | 0.005 µM | 1.62 µM | 1.8 µM
33 | CC(=N)N[C@H]1CC[C@H](Nc2cc(C(C3CC3)C3CC3)nc3c(F)cnn23)C1 [Compound Z-73] | 0.018 µM | 2.57 µM | 3.68 µM
34 | C=CC(C)(C)c1cc(N[C@H]2CC[C@H](N)C2)n2ncc(C)c2n1 [Compound Z-19] | 0.092 µM | > 10 µM | > 10 µM
35 | N[C@H]1CC[C@H](Nc2cc(C(F)(F)C3CC3)nc3ccnn23)C1 [Compound Z-37] | 0.027 µM | 7.18 µM | > 10 µM
